Assays:
Format in all cases: in vivo
nematode eggs = test: Nematode eggs per gram of feces in pastured cattle (Example 14)
Protocol: (§1) One half boluses (weight 25.5 to 27.0 g) and are administered to cattle on pasture. […] In this test pastured animals are randomly divided into groups of 5 animals per group and ear-tagged. The feces of all animals is examined prior to the tests in order to determine the average number of nematode eggs per gram of feces of the test animals. […] The test is begun with all animals receiving one half of a bolus weighing about 25 to 27 grams. […] The animals are then placed in individual paddocks and examined at intervals during the holding period up to 120 days. […]

Cooperia = test: Per cent control of nematodes in cattle (Example 14); conditions: dewormed 57 days earlier
Protocol: as §1

Haemonchus = test: as above; conditions: dewormed 57 days earlier
Protocol: as §1

Oesophlogostonum = test: as above; conditions: dewormed 57 days earlier
Protocol: as §1

Ostertagia = test: as above; conditions: dewormed 57 days earlier
Protocol: as §1

[1] = Weight gains of cattle (Example 14)
Protocol: as §1

Q: What does the source list for `c1ccc([C@H]2CN3CCSC3=N2)cc1` [Levamisole]?
A: Average number of nematode eggs per gram of feces (nematode eggs; Day 0 (before treatment)): (2850); Average number of nematode eggs per gram of feces (nematode eggs; Day 7): 5; per cent in parentheses beside the egg count (reduction of nematode eggs) (nematode eggs; Day 7): 99.9%; Average number of nematode eggs per gram of feces (nematode eggs; Day 62 (levamisole group re-treated on day 62)): 755; Average number of nematode eggs per gram of feces (nematode eggs; Day 119): 146; Avg. number worms Cooperia (Cooperia): 5937; Avg. number worms Haemonchus (Haemonchus): 2325; Avg. number worms Oesophlogostonum (Oesophlogostonum): 117; Avg. number worms Ostertagia (Ostertagia): 729; Average weight gains (Kg) from Day 0 ([1]; Day 7): 7 kg; Average weight gains (Kg) from Day 0 ([1]; Day 62): 0 kg; Average weight gains (Kg) from Day 0 ([1]; Day 110): 21 kg

From EP0385106A1, “Sustained release bolus effective for the prolonged prevention, treatment or control of nematode, acarid and endo- and ectoparasitic infestations of ruminants” (AMERICAN CYANAMID COMPANY, priority 1989, dated 1990)
